How the values were obtained:
[1] = molecular target: T1, Hpk1 (Homo sapiens, UniProt Q92918); experiment: SLP76 phosphorylation assay (HEK293 cells expressing Hpk1 and SLP76); format: cell-based; conditions: SLP76 phosphorylation at S376, HEK293 cells expressing Hpk1 and SLP76, 4 hours incubation; for IC50: read-out: pSLP76 (HEK293) (pIC50) (converted)
T1 construct: expressed in transfected cells; host or cells: HEK293 cells engineered to express Hpk1 and SLP76
Description: Hpk1 inhibition in cells was determined by detection of SLP76 phosphorylation at S376 in lysates from HEK293 cells engineered to express Hpk1 and SLP76. Serial dilutions of test compounds were prepared in cell culture medium and 20 μl was transferred into each well of a 96-well plate containing HEK293 cells in 180 μl of culture medium. After incubation for 4 hours at 37° C./5% CO2, the culture medium was removed, plates were put on ice and cells washed with cold Minimal Essential Medium before lysing in 90 μl of cold Mammalian Protein Extraction Reagent (Thermo Scientific, 78501) for 30 minutes on ice. The cell lysates were transferred to another 96-well plate, centrifuged 10 minutes at 3000 rcf (4° C.) and 30 μl transferred to a 96-well High-bind plate (MSD, L15XB-3). After coating overnight at 4° C., the cell lysate was removed, wells were washed with base buffer (TBS, 0.2% Tween-20), and blocking solution (base buffer containing 3% MSD blocker A) was added to each well for 1 hour at room temperature. The blocking solution was removed, the wells were washed with base buffer, and detection antibody (SLP76 pS376) was added in 25 μl base buffer containing 1% MSD blocker A to each well. After a 2 h incubation at room temperature, the detection antibody was removed, wells were washed four times with base buffer, 25 μl SULFO-TAG labeled goat anti-rabbit secondary antibody (MSD, R32AB-1) in base buffer containing 1% MSD blocker A was added to each well and left for 1 hour at room temperature. Wells were washed 4 times with base buffer, 150 μl Read Buffer T was added to each well, and the plates were read in a Mesoscale plate reader (MSD). IC50 values were determined by curve-fitting the electrochemiluminescent signals obtained from the lysates of HEK293 cells expressing Hpk1 and SLP76 treated with test compounds at various concentrations minus the signal obtained from HEK293 cells expressing SLP76 only.

[2] = molecular target: T2, full-length human Hpk1 (Homo sapiens, UniProt Q92918); experiment: HPK1 kinase assay (ADP Glo); format: biochemical; conditions: GST-Hpk1, 75 μM ATP solution added, ADP Glo luminescence; for IC50: read-out: Hpk1 biochemical (pIC50) (converted)
T2 construct: full-length human Hpk1 with an N-terminal Glutatione S-transferase (GST) tag; GST (N); made in house; host or cells: baculovirus/insect cell expression system
Description: A recombinant fusion protein consisting of full-length human Hpk1 with an N-terminal Glutatione S-transferase (GST) tag was produced in a baculovirus/insect cell expression system. GST-Hpk1 protein was purified from cell lysates by glutathione sepharose affinity chromatography. Kinase inhibition was determined using the ADP Glo™ Kinase Assay kit (Promega, V9101). Test compounds were prepared by serial dilution in dimethyl sulfoxide (DMSO) and 0.1 μl of each dilution was spotted onto a 384-well white Proxiplate (Perkin Elmer, 6008289). 8 μl of kinase assay buffer (40 mM Tris pH 7.5, 2 mM dithiothreitol (DTT), 0.05% Bovine Serum Albumin, 5 mM MgCl2) containing Hpk1 protein was transferred to each well and incubated for 30-45 minutes at room temperature. The enzymatic reaction was started by adding 2 μl of kinase assay buffer containing 75 μM ATP. After 120 minutes, the reaction was stopped by adding 3 μl of ADP Glo™ reagent (Promega, V9101) and incubating 45 minutes at room temperature.

T1 sequence (Q92918 whole entry): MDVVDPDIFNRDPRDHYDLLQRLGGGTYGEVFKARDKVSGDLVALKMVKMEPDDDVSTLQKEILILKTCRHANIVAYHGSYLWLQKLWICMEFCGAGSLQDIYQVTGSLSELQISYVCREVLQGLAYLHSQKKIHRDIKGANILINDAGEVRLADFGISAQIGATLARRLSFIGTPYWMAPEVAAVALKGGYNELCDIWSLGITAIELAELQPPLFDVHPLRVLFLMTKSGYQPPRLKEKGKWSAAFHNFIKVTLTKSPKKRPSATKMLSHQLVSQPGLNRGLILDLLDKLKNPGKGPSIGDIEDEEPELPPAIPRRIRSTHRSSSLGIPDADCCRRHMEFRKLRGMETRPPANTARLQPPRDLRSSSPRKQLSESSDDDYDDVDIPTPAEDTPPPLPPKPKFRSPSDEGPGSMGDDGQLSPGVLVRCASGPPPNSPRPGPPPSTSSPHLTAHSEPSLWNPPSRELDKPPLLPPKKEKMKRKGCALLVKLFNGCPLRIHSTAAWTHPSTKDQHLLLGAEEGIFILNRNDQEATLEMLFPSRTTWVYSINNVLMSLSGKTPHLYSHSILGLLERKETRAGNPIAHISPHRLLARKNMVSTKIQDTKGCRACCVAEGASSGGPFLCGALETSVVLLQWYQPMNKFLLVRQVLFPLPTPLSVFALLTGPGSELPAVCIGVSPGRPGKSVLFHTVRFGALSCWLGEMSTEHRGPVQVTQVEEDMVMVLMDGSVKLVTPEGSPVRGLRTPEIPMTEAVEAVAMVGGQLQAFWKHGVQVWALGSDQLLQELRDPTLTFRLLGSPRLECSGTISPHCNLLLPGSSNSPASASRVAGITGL
T2 sequence (Q92918 whole entry): as above

Structure (SMILES)	IC50 [1] [nM]	IC50 [2] [nM]	pSLP76 (HEK293) (pIC50) [1]	Hpk1 biochemical (pIC50) [2]
CC(C)[C@H](CO)CNC(=O)c1c[nH]c2ncc(-c3ccc(C4CCOCC4)c(CN(C)C)c3)cc12 (single isomer, unassigned) [Co. 31a]	257	3.39	–	–
CC(C)[C@@H](CO)CNC(=O)c1c[nH]c2ncc(-c3ccc(C4CCOCC4)c(CN(C)C)c3)cc12 (single isomer, unassigned) [Co. 31b]	1320	26.3	–	–
Cc1c[nH]c2ncc(-c3ccc(C4CCOCC4)c([C@@H]4CCCN4)c3)cc12 [Co. 1]	288	1.86	–	–
Cc1cc2cc(-c3ccc(C4CCOCC4)c(C4CCCN4)c3)cnc2[nH]1 (stereo not shown) [Co. 2]	6760	145	–	–
N#Cc1c[nH]c2ncc(-c3ccc(C4CCOCC4)c(C4CCCN4)c3)cc12 (stereo not shown) [Co. 3]	257	3.16	–	–
N#CCc1c[nH]c2ncc(-c3ccc(C4CCOCC4)c([C@@H]4CCCN4)c3)cc12 [Co. 4]	120	11.2	–	–
c1cc2cc(-c3ccc(C4CCOCC4)c(C4CCCN4)c3)cnc2[nH]1 (stereo not shown) [Co. 6]	389	30.2	–	–
Cc1c[nH]c2ncc(-c3ccc(C4CCOCC4)c([C@@H]4COCCN4)c3)cc12 [Co. 8]	112	4.47	–	–
CC(C)C(O)CNC(=O)c1c[nH]c2ncc(-c3ccc(C4CCOCC4)c(CN(C)C)c3)cc12 (stereo not shown) [Co. 11]	3550	21.9	–	–
CN(C)Cc1cc(-c2cnc3[nH]cc(C(=O)NCC(C)(C)O)c3c2)ccc1C1CCOCC1 [Co. 12]	575	5.75	–	–
CN(C)Cc1cc(-c2cnc3[nH]cc(C(=O)NCC(CO)C4CC4)c3c2)ccc1C1CCOCC1 (stereo not shown) [Co. 13]	759	12	–	–
CN(C)Cc1cc(-c2cnc3[nH]cc(C(=O)NCC4(CO)CC4)c3c2)ccc1C1CCOCC1 [Co. 15]	380	7.94	–	–
CN(C)Cc1cc(-c2cnc3[nH]cc(C(=O)NCC4(CO)COC4)c3c2)ccc1C1CCOCC1 [Co. 16]	> 10000	53.7	–	–
CN(C)Cc1cc(-c2cnc3[nH]cc(C(=O)NCC4(CO)CCCC4)c3c2)ccc1C1CCOCC1 [Co. 17]	251	3.8	–	–
CN(C)Cc1cc(-c2cnc3[nH]cc(C(=O)N[C@@H]4CCC[C@@H]4O)c3c2)ccc1C1CCOCC1 [Co. 18]	263	2.88	–	–
CN(C)Cc1cc(-c2cnc3[nH]cc(C(=O)NCc4ncco4)c3c2)ccc1C1CCOCC1 [Co. 19]	1020	10.2	–	–

Structure (SMILES)	IC50 [1] [nM]	IC50 [2] [nM]	pSLP76 (HEK293) (pIC50) [1]	Hpk1 biochemical (pIC50) [2]
CN(C)Cc1cc(-c2cnc3[nH]cc(C(=O)NCc4nccn4C)c3c2)ccc1C1CCOCC1 [Co. 20a]	6920	28.2	–	–
CN(C)Cc1cc(-c2cnc3[nH]cc(C(=O)N(C)C)c3c2)ccc1C1CCOCC1 [Co. 20b]	7240	93.3	–	–
Cc1nnc(CNC(=O)c2c[nH]c3ncc(-c4ccc(C5CCOCC5)c(CN(C)C)c4)cc23)o1 [Co. 21]	9550	33.9	–	–
Cc1nc(CNC(=O)c2c[nH]c3ncc(-c4ccc(C5CCOCC5)c(CN(C)C)c4)cc23)no1 [Co. 22]	6460	58.9	–	–
CN(C)Cc1cc(-c2cnc3[nH]cc(C(=O)NCC4(O)CCCC4)c3c2)ccc1C1CCOCC1 [Co. 23]	1580	10.5	–	–
CN(C)Cc1cc(-c2cnc3[nH]cc(C(=O)NCc4nccs4)c3c2)ccc1C1CCOCC1 [Co. 24]	1550	4.47	–	–
CN(C)Cc1cc(-c2cnc3[nH]cc(C(=O)NCC4CCC(=O)N4C)c3c2)ccc1C1CCOCC1 (stereo not shown) [Co. 26]	4270	38.9	–	–
CC(CO)CNC(=O)c1c[nH]c2ncc(-c3ccc(C4CCOCC4)c(CN(C)C)c3)cc12 (stereo not shown) [Co. 27]	–	–	5.94	7.93
CN(C)Cc1cc(-c2cnc3[nH]cc(C(=O)NCCNC(=O)C(F)F)c3c2)ccc1C1CCOCC1 [Co. 29]	1550	12.3	–	–
COCC(C)(O)CNC(=O)c1c[nH]c2ncc(-c3ccc(C4CCOCC4)c(CN(C)C)c3)cc12 (stereo not shown) [Co. 30]	2140	15.8	–	–
CC(=O)N(C)CCNC(=O)c1c[nH]c2ncc(-c3ccc(C4CCOCC4)c(CN(C)C)c3)cc12 [Co. 32]	1580	66.1	–	–
CN(C)Cc1cc(-c2cnc3[nH]cc(C(=O)NS(=O)(=O)C4CC4)c3c2)ccc1C1CCOCC1 [Co. 33]	> 10000	9.12	–	–
CC(C)C(CO)CNCc1c[nH]c2ncc(-c3ccc(C4CCOCC4)c(CN(C)C)c3)cc12 (stereo not shown) [Co. 34]	> 10000	324	–	–
c1coc(CNCc2c[nH]c3ncc(-c4ccc(C5CCOCC5)c(C5CCCN5)c4)cc23)n1 (stereo not shown) [Co. 35]	3020	22.9	–	–
CC(C)C(CO)CNC(c1c[nH]c2ncc(-c3ccc(C4CCOCC4)c(CN(C)C)c3)cc12)C(F)(F)F (stereo not shown) [Co. 36]	2630	40.7	–	–
CN(C)Cc1cc(-c2cnc3[nH]cc(C(NCc4ncco4)C(F)(F)F)c3c2)ccc1C1CCOCC1 (stereo not shown) [Co. 37]	1660	21.9	–	–

Source: US12486264B2, “Bicyclic HPK1 inhibitors” (Janssen Pharmaceutica NV, priority 2019, dated 2025)
